Data taken from ChEMBL document CHEMBL1255438, “Comparative activities of TR-700 (torezolid) against staphylococcal blood isolates collected in Spain” (2010).
In brackets after ≈: the same amount, converted by molar mass. Activity calls are given as the source filed them. No cut-off for these calls is given here.

Legend:
Format in all cases: functional
[1] = test system: Staphylococcus; assay: Antimicrobial activity against linezolid-susceptible coagulase-negative Staphylococcus by CLSI method
[2] = test system: Staphylococcus; assay: Antimicrobial activity against linezolid-resistant coagulase-negative Staphylococcus assessed as percent susceptible strain by CLSI method
[3] = test system: Staphylococcus; assay: Antimicrobial activity against oxacillin-resistant coagulase-negative Staphylococcus aureus by CLSI method
[4] = test system: Staphylococcus aureus; assay: Antimicrobial activity against methicillin-resistant Staphylococcus aureus by CLSI method
[5] = test system: Staphylococcus aureus; assay: Antimicrobial activity against oxacillin-resistant Staphylococcus aureus by CLSI method
[6] = test system: Staphylococcus; assay: Antimicrobial activity against linezolid-resistant coagulase-negative Staphylococcus by CLSI method
[7] = test system: Staphylococcus; assay: Antimicrobial activity against oxacillin-susceptible coagulase-negative Staphylococcus aureus by CLSI method
[8] = test system: Staphylococcus; assay: Antimicrobial activity against linezolid-susceptible coagulase-negative Staphylococcus assessed as percent susceptible strain by CLSI method
[9] = Antimicrobial activity against oxacillin-susceptible coagulase-negative Staphylococcus aureus assessed as percent susceptible strain by CLSI method
[10] = test system: Staphylococcus aureus; assay: Antimicrobial activity against oxacillin-susceptible Staphylococcus aureus by CLSI method
[11] = test system: Staphylococcus aureus; assay: Antimicrobial activity against linezolid-susceptible Staphylococcus aureus by CLSI method
[12] = test system: Staphylococcus aureus; assay: Antimicrobial activity against linezolid-susceptible Staphylococcus aureus assessed as percent susceptible strain by CLSI method
[13] = test system: Staphylococcus aureus; assay: Antimicrobial activity against linezolid-resistant Staphylococcus aureus by CLSI method
[14] = test system: Staphylococcus aureus; assay: Antimicrobial activity against oxacillin-susceptible Staphylococcus aureus assessed as percent susceptible strain by CLSI method
[15] = test system: Staphylococcus; assay: Antimicrobial activity against Linezolid and methicillin-resistant coagulase-negative Staphylococcus by CLSI method

Compound CC(=O)N[C@@H]1[C@H](Oc2c3cc4cc2Oc2ccc(cc2Cl)[C@@H](O[C@@H]2O[C@@H](CO)[C@@H](O)[C@H](O)[C@@H]2NC(C)=O)[C@@H]2NC(=O)[C@H](NC(=O)[C@@H]4NC(=O)[C@H]4NC(=O)[C@@H](Cc5ccc(c(Cl)c5)O3)NC(=O)[C@H](N)c3ccc(O)c(c3)Oc3cc(O)cc4c3)c3ccc(O)c(c3)-c3c(O[C@H]4O[C@H](CO)[C@@H](O)[C@@H](O)[C@@H]4O)cc(O)cc3[C@@H](C(=O)O)NC2=O)O[C@@H](CO)[C@@H](O)[C@@H]1O has an MIC50 [1] of 2 µg/mL (≈ 1.13 µM), an MIC90 [1] of 8 µg/mL (≈ 4.53 µM) and an Activity [2] of 80%. For the same compound, the MIC50 [3] was 2 µg/mL (≈ 1.13 µM), the MIC90 [3] was 8 µg/mL (≈ 4.53 µM) and the Activity [4] was “Active”. It also gave an MIC90 [5] of 1 µg/mL (≈ 0.566 µM), an MIC50 [6] of 4 µg/mL (≈ 2.26 µM) and an MIC50 [7] of 2 µg/mL (≈ 1.13 µM). It also gave an MIC90 [7] of 4 µg/mL (≈ 2.26 µM), an Activity [8] of 94.5% and an Activity [9] of 100%. For the same compound, the MIC50 [10] was at most 0.5 µg/mL, the MIC90 [10] was 1 µg/mL (≈ 0.566 µM) and the MIC90 [11] was 1 µg/mL (≈ 0.566 µM). For the same compound, the Activity [12] was 100%, the MIC50 [13] was 1 µg/mL (≈ 0.566 µM) and the Activity [14] was 100%.
CCCCCCCCCC(=O)N[C@@H](Cc1c[nH]c2ccccc12)C(=O)N[C@H](CC(N)=O)C(=O)N[C@@H](CC(=O)O)C(=O)N[C@@H]1C(=O)NCC(=O)N[C@@H](CCCN)C(=O)N[C@@H](CC(=O)O)C(=O)N[C@H](C)C(=O)N[C@@H](CC(=O)O)C(=O)NCC(=O)N[C@H](CO)C(=O)N[C@@H]([C@H](C)CC(=O)O)C(=O)N[C@@H](CC(=O)c2ccccc2N)C(=O)O[C@@H]1C gave an MIC50 [1] of 0.25 µg/mL (≈ 0.154 µM), an MIC90 [1] of 0.5 µg/mL (≈ 0.309 µM) and an MIC50 [3] of 0.25 µg/mL (≈ 0.154 µM). The MIC90 [3] was 0.5 µg/mL (≈ 0.309 µM), the Activity [4] was “Active” and the MIC50 [5] was 0.5 µg/mL (≈ 0.309 µM). For the same compound, the MIC90 [5] was 0.5 µg/mL (≈ 0.309 µM), the MIC50 [6] was 0.5 µg/mL (≈ 0.309 µM) and the MIC50 [7] was 0.25 µg/mL (≈ 0.154 µM). It also gave an MIC90 [7] of 0.5 µg/mL (≈ 0.309 µM), an Activity [8] of 100% and an Activity [9] of 100%. For the same compound, the MIC [15] was 0.5 µg/mL (≈ 0.309 µM), the MIC50 [10] was 0.25 µg/mL (≈ 0.154 µM) and the MIC90 [10] was 0.5 µg/mL (≈ 0.309 µM). The MIC50 [11] was 0.25 µg/mL (≈ 0.154 µM), the MIC90 [11] was 0.5 µg/mL (≈ 0.309 µM) and the Activity [12] was 100%. For the same compound, the MIC50 [13] was 0.5 µg/mL (≈ 0.309 µM) and the Activity [14] was 100%.
